Measurements from article PMC12276035, “Novel Para‐Phenylenediamine‐Based Derivatives as Receptor Tyrosine Kinase‐like Orphan Receptor 1 (ROR1) Inhibitors: An In Vitro Preliminary Characterization” (Chemmedchem, 2025).

Assays:
SH‐SY5Y cells = experiment: MTT cell viability assay, SH‐SY5Y; assay type: cell-based; settings: Homo sapiens, cytotoxicity, treated for 72 h, read-out: EC50 ± SD SH‐SY5Y
Experimental: Cytotoxicity studies, assessing the activity of the synthetized compounds, were performed only on the molecules showing the best binding profile in the SPR assay. MTT test was performed on two cell lines known for overexpressing ROR1, particularly MTT assays were conducted on JeKo‐1 (human mantle cell lymphoma) and SH‐SY5Y (neuroblastoma), exposing them to different concentrations of compounds for 72 h (Table 2 ). […] This increased effectiveness is likely due to the high expression of the target protein in leukemia and other hematologic malignancies. […] A key structural difference in 18 and 19 compared to active compounds is the absence of the trifluoromethyl group on the aromatic ring. Indeed, the removal of the trifluoromethyl group (18) or the incorporation of an electron‐donating substituent (19) alters the interaction with the ATP‐binding pocket.
The neuroblastoma SH‐SY5Y cells, a human neuroblastoma cell line of neural crest origin, were obtained from ATCC and were grown in DMEM supplemented with 10% v/v fetal bovine serum, 2 mM L‐glutamine, 100 U mL^−1 penicillin, and 0.1 mg mL^−1 streptomycin.
Cell viability was established by measuring mitochondrial metabolic activity with MTT. In brief, SH‐SY5Y (20 × 10^3 cells/well) and JeKo‐1 (10 × 10^3 cells/well) were plated into 96‐well plates for 24 h, then the compounds (1.56–50 μM) were added. […], cells were replaced with a fresh medium containing 0.5 mg mL^−1 MTT.^[ [45] ^] Cells were incubated for 1–3 h at 37 °C, then the medium was discarded, and formazan blue crystals in the cells dissolved with 100 μL per well of a solution containing isopropanol/HCl 0.1 M. The absorbance was measured at 570 nm using a microplate reader (Multiskan Go, Thermo Scientific, Waltham, MA, USA). Cell viability was expressed as a percentage relative to the untreated cells cultured in medium with 0.1% DMSO and set to 100%, whereas 10% DMSO was used as positive control and set to 0% of viability. The EC50 values were calculated using GraphPad Prism 8.0 software by nonlinear regression of dose‐response inhibition.

ROR1 = target: T1, ROR1 (Homo sapiens, UniProt Q01973); experiment: Cellular Thermal Shift Assay (CETSA); assay type: cell-based; settings: JeKo‐1, 40 μM, 2 h, 45–58 °C
T1 construct: endogenous in cells; host or cells: JeKo-1
Experimental: To further ascertain the binding between 17 and ROR1, we performed CETSA, a cell‐based test allowing us to carry out both qualitative and quantitative analyses of the direct interaction of a drug candidate to a target protein inside a cell.^[ [34] ^] CETSA assay was performed on JeKo‐1 cell line incubated with 17 for 2 h. After the treatment, ROR1 levels were evaluated by western blotting analysis. […] These findings provide strong evidence that the inhibitor effectively engages with ROR1 in cells, further supporting its mechanism of action (Figure 5 ). Ponatinib was used as a positive control (Figure S40, Supporting Information).
Figure 5 CETSA identifies ROR1 protein in the binding with 17 in JeKo‐1 cells. A) CETSA western blots and B) corresponding quantitative analysis of band intensity. […] Densitometry‐based quantification of western blotting signals was calculated by first normalizing to α‐tubulin levels in individual samples. […]
The CETSA is particularly suitable for identifying the interaction between ligands and their protein targets. […] The change in the thermal stability of the target protein is measured by the amount of residual soluble protein at different temperatures, comparing treated samples with control samples.^[ [32] ^] […] The amount of the soluble target protein was assessed by western blotting analysis.

[1] = Liver microsomal stability; assay type: in vitro ADME, mouse
Experimental: To evaluate the metabolic stability of our hit compound and assess its drug‐likeness, we investigated the microsomal stability of 17 by incubating it with mouse liver microsomes. We monitored the loss of the compound over time under CYP‐mediated metabolic pathways (Figure 7A). The natural logarithm of the percentage remaining of the compound, calculated by comparing the concentration at each time point with the t0 sample, was plotted against time, yielding a linear regression (R ^2 = 0.98).
The liver microsomal stability assay of compound 17 was conducted as previously described.^[ [47] ^] Briefly, mouse (CD‐1) liver microsomes (Thermo Fisher Scientific, Bremen, Germany) were used, and the reaction was initiated by the addition of NADPH. The incubation was carried out 37 °C for 15, 30, 45, and 60 min in a Thermomixer comfort (Eppendorf, Hamburg, Germany). The reaction was stopped by the addition of ice‐cold methanol containing IS. Finally, the samples were centrifuged, and the supernatants were injected into the LC‐MS. […] All experiments were performed in triplicate, and results were expressed as the in vitro microsomal half‐life (t 1/2), calculated using the equation t 1/2 = 0.693/b, where b is the slope of the linear regression obtained by plotting the natural logarithm of the remaining parent compound fraction against incubation time.

Plasma stability assay = assay type: in vitro ADME; settings: mouse plasma, 120 min, 37 °C
Experimental: In addition to hepatic metabolism, drugs are also prone to degradation and modification by plasma enzymes, including hydrolases and esterases. Compounds with low plasma stability often show rapid clearance and a short half‐life. […] In this study, we assessed the metabolic stability of compound 17 by incubating it in mouse plasma for 120 min.
The plasma stability of compound 17 was evaluated. Briefly, mouse plasma is equilibrated to 37 °C and biotransformation is initiated by addition of compound solution and mixing. At each specified time point (0, 60, and 120 min), the test compound was extracted using ice‐cold methanol to halt degradation, with the IS added during the quenching phase. The concentration of the test compound was then quantified using LC‐MS. The percentage of the test compound remaining at each time point, relative to the 0 min reference, was recorded. Procaine (low stability) and procainamide (high stability) served as controls. All experiments were conducted in triplicate.

T1 sequence (Q01973 30-937): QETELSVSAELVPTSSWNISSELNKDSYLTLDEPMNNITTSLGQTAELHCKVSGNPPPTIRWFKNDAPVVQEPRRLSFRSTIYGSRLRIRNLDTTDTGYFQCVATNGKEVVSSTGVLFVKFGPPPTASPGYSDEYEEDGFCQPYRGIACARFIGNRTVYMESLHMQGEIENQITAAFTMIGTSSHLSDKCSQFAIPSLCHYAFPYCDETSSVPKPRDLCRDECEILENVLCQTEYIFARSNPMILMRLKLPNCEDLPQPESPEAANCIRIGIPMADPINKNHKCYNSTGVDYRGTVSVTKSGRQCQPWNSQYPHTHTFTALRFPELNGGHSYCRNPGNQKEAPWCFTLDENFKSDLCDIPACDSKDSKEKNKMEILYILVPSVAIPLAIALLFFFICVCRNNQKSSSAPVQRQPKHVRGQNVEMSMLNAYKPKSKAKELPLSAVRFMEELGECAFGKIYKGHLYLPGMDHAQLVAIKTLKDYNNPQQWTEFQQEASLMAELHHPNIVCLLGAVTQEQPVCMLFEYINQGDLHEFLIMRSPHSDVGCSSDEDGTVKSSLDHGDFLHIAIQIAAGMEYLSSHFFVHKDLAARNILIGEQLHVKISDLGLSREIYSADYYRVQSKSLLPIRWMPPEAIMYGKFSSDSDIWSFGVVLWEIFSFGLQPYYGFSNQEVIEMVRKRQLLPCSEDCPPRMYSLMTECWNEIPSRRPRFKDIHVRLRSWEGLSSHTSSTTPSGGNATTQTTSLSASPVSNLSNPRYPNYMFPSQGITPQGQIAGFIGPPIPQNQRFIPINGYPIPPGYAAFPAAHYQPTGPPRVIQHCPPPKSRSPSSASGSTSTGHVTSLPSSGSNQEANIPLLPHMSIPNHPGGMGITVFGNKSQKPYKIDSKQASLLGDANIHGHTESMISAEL

O=C(NCc1ccc(-c2ccccc2)cc1)Nc1ccc(NCC2CCNCC2)cc1C(F)(F)F [Compound 17]
EC50 (SH‐SY5Y cells): 17.7 ± 2.73 µM
ROR1 thermal stabilization (ROR1): strong stabilization
degradation ([1]; after 60 min with mouse microsomes): ≈ 20%
half-life ([1]; mouse (CD‐1) liver microsomes, NADPH, 37 °C): ~3.3 h
compound remaining intact (Plasma stability assay): over 85%
